Where a SMILES comes first, the peptide text is derived from it. The star is where a group is joined. Palmitoyl = CCCCCCCCCCCCCCCC(=O)*

For data set [1], the system named is HIV-1 infection of TZM-bl cells. The experiment in a line: HIV-1 infection assay (β-galactosidase luminescence reporter). The class given is cell-based. The conditions noted are these: infectivity enhancing if n-fold at 1.3 µM larger than 2. A digest of the protocol:
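TZM-bl cells (10000 per well) were seeded one day before infection. Peptide nanofibril solution was mixed 1:1 (v/v) with HIV-1 (1:500 dilution) for 10 min before inoculation. Infection was read as β-galactosidase luminescence, in technical triplicates across three independent experiments.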

Data set [2] deals with GALV-RV transduction of Jurkat cells. The experiment in a line: γ-Retroviral infection assay of Jurkat cells (GFP+ cells by flow cytometry). As to conditions: three days after transduction, increasing peptide concentration, performed once. The data set is classed as cell-based. The protocol: γ‐Retroviral Infection Assay of Jurkat cells: 50000 Jurkat cells were seeded in 180 µl supplemented RPMI. The cells were inoculated with 20 µl PNF solution 1:1 (v/v) mixed with virus (1:3.2 dilution) after an incubation time of 10 min. The effect of peptide fibrils on retroviral transduction of Jurkat cells was analyzed 3 days post infection by determining the percentage of GFP + cells by flow cytometry. All assays were conducted as described before.^[ [20] ^]
For orientation: In flow cytometry, cells or beads pass a laser one at a time.

The test system of data set [3] is GALV-RV transduction of CD4+ T cells. The experiment in a line: γ-Retroviral transduction assay of CD4+ T cells. The class given is cell-based, Human. The conditions noted are these: GALV-RV, 0.26, 1.3, 6.5 µM; GFP+ cells after 3 days; performed once. The protocol:
γ‐Retroviral transduction Assay CD4+ T cells: Human CD4+ T cells were isolated from a Buffy coat using RosetteSep Human CD4+ Enrichment Cocktail ([…] Technologies) according to manufacturer's protocol. Isolated T cells were activated using Dynabeads Human T‐Activator CD3/CD28 (GibcoTM) according to manufacturer's protocol in presence of 10 ng mL^−1 IL‐2 (Miltenyi Biotec) for three days. After 3 days the magnetic Dynabeads were removed using a magnet and T cells were cultured in presence of 9 ng mL^−1 IL‐7 (Miltenyi Biotec) and 10 ng mL^−1 IL‐15 (Miltenyi Biotec). After 1 day 5 × 10^5 T cells were transduced with GALV‐γ‐RV in absence and presence of PA1, PA2, EF‐C (0.26, 1.3 and 6.5 µM) and Vectofusin−1 (10 µg mL^−1; Miltenyi Biotec), or RetroNectin (20 µg mL^−1; Takara Bio). The concentration of the transduction enhancers corresponds to the concentration on cells and in the case for RetroNectin it corresponds to the concentration that was used to precoat the 24‐well plate. The 24‐well plate was coated with RetroNectin and incubated overnight at 4°C. Wells were blocked with PBS containing 2% BSA for 30 min and washed twice with PBS. […] After 3 days GFP+ T cells were analyzed by flow cytometry. Viability was determined using LIVE/DEAD Fixable Aqua Dead Cell Stain Kit (ThermoFisher Scientific) according to manufacturer's protocol. […]

Data set [4] is described as follows: Zeta-potential measurement. The class given is physicochemical. The conditions noted are these: fibrils 1 mg mL-1 in PBS, 60 µL diluted in 600 µL 1 mM KCl; triplicates. On the procedure: Zeta‐potential: 60 µL of the peptides (1 mg mL^−1) were diluted in 600 µL, 1 mM KCl solution and placed in a disposable folded capillary cuvette. All zeta‐potential measurements (Zetasizer, Malvern Instruments) were conducted in triplicates for each sample.

Another data set in a line: ThT fluorescence. As to conditions: 1 mg mL-1 in PBS; ThT-active if fluorescence at least twice the control (PBS with 10% DMSO). More on the design: key: + = ThT active; − = no ThT fluorescence observed. The data set is classed as physicochemical. The protocol:
ThT‐fluorescence: 20 µL 50 µM of ThT solution in PBS was pipetted in a black 384 well‐plate and 4 µL of the nanofibril solution 1 mg mL^−1 were added. For reference PBS with 10% DMSO (4 µL) instead of fibril solution was added. Subsequently, fluorescence emission was recorded λem = 488 nm upon excitation at λex = 440 nm with 10 nm bandwidth and multiple reads per well (3 × 3) using a Spark 20 M microplate reader (Tecan Group, Ltd). Data processing was performed with Origin software. A peptide fibril was considered as ThT‐active if the fluorescence intensity was at least twice as strong compared to the control (PBS containing 10% DMSO).

For another data set, the system named is HeLa cells. The experiment in a line: Cell-PA interaction by confocal laser scanning microscopy. The data set is classed as cell-based. As to conditions: peptide 20 µg mL-1 added for 30 min, washed, Proteostat stain. The protocol: Confocal laser scanning microscopy and degradation study with PA1‐3 and HeLa cells: HeLa cells were seeded one day prior to conducting the assay (40000/well) in an 8‐well IBIDI slide. 4 µL of the preformed peptide fibrils (1 mg mL^−1) were diluted with 4 µL Proteostat (Enzo Life Science, 1 µL stock in 999 µL PBS) and incubated for 10 min and further diluted with medium to receive a final peptide concentration of 20 µg mL^−1. The nucleus of the HeLa cells was stained with Hoechst 33 342 (NucBlue, Thermo Fisher Scientific). The peptide solution was transferred to the HeLa cells and incubated for 30 min at 37°C before washing three times with PBS. The interaction of fibril clusters with cells was monitored after 30 min incubation time on a Stellaris 8 confocal laser scanning microscope (Leica) equipped with a 20x air objective and laser excitation wavelengths of 405 nm (Hoechst) and 561 nm (Proteostat). For the evaluation of aggregate degradation, the samples were further incubated at 37°C for 3 d and analyzed without any additional washing step. The evaluation of aggregate size and number was conducted by analyzing Proteostat stained aggregates via the 3D objects counter function of ImageJ 1.53f51 for 3 individual measurements (area 581.25 µm × 581.25 µm). […] The number of aggregates larger than 10 µm^2 were counted via the 3D objects counter function of ImageJ 1.53f51. The mean number and standard deviations were determined by averaging at least three technical triplicates.
Figure S6 Laser scanning microscopy micrographs of A cells only (control), and Proteostat-stained (red) peptides B EF-
C ([…]), C PA1, D PA2, E PA3, F P1, G P2, H P3 added to HeLa cells (nucleus in blue). The peptides (20 µg mL-
1) were added to cells for 30 min, washed and analyzed. […]

`CCCCCCCCCCCCCCCC(=O)N[C@@H](Cc1ccccc1)C(=O)N[C@@H](CCC(N)=O)C(=O)N[C@@H](Cc1ccccc1)C(=O)N[C@@H](CCCCN)C(=O)N[C@@H](Cc1ccccc1)C(=O)N[C@@H](CCCCN)C(=O)N[C@@H](CS)C(N)=O` [PA2] (Palmitoyl-FQFKFKC-NH2): the “infectivity enhancement of HIV-1 (in words)” value in data set [1] is on record as “strong infectivity enhancement of HIV‐1 in the range of EF‐C”. For the same molecule, the “transduction enhancement of Jurkat cells (GFP+ cells, in words)” value in data set [2] is reported as “strong transduction enhancement similar to EF‐C”. Further, the “transduction efficacy in primary CD4+ T cells (in words)” value in data set [3] was “in the range of commercially available gold‐standard enhancers RetroNectin and Vectofusin‐1”. The Zeta-Potential entry in data set [4] is “+19.2 ± 3.4 mV”. For the same molecule, in “ThT fluorescence”, the ThT fluorescence result is listed as “+”. For the same molecule, the “association with cellular membranes” value in the data set on HeLa cells is listed as “association with cellular membranes”.

C16-VVVAAAKKK-NH2 [PA1]: the “infectivity enhancement of HIV-1 (in words)” value in data set [1] is reported as “strong infectivity enhancement of HIV‐1 in the range of EF‐C”. Further, the “transduction enhancement of Jurkat cells (GFP+ cells, in words)” value in data set [2] is reported as “strong transduction enhancement similar to EF‐C”. Further, in data set [3], the “transduction efficacy in primary CD4+ T cells (in words)” value is “in the range of commercially available gold‐standard enhancers RetroNectin and Vectofusin‐1”. The Zeta-Potential result in data set [4] is “+22.2 ± 0.7 mV”. The ThT fluorescence entry in the data set “ThT fluorescence” is “+”. For the same molecule, the “association with cellular membranes” value with HeLa cells was “association with cellular membranes”.

The values are drawn from publication PMC11468294, “Peptide Amphiphiles as Biodegradable Adjuvants for Efficient Retroviral Gene Delivery” (Advanced Healthcare Materials, 2023).
